Data published in US12667571B2, “Uridine phosphorylase (UPase) inhibitors for treatment of liver conditions” (Tosk, Inc., priority 2019, dated 2026).
Entries after “also recorded” stand apart in the source; their conditions may differ.

What was measured:
[1] = test system: plasma UR; assay: Plasma UR concentration versus plasma Compound 1 concentration after continuous sc osmotic-pump infusion; type: in vivo; settings: BDF-1 male mice, result in words
Procedure: For this reason continuous infusion of compound I (authentic TK-112690, Batch TCY90108) to BDF-1 ♂ mice were administered via a sc implanted osmotic pumps and the UR plasma concentration measured, ^46 Deng Y, Wang Z V, Gordillo R, An Y, Zhang C, Liang Q, Yoshino J, Cautivo K M, De Brabander J, Elrnquist J K, Horton J D, Hill J A, Klein S, Scherer P E. An adipo-biliary-uridine axis that regulates energy homeostasis. Science 2017, 17; 355(6330)
Solutions of Compound I were prepared at a concentration of 500 mg/mL in sterile PBS. Osmotic pumps (ALZET® micro-osmotic pump 2001 D and 1003D, Alza Co) were loaded with 200 μL (2001D osmotic pump) and/or 100 μL (1003D osmotic pump) of TK-112690 solution.
BDF-1 male mice (n=6) were treated with a constant-rate infusion of 667, 833 or 3000 mg/kg/day doses of Compound I delivered via subcutaneously implanted osmotic pumps. Animals were anesthetized with 100 mg/kg ketamine prior to pump implantation. Surgical scissors were used to make an approximately 1 cm incision on the dorsal surface near the shoulder blade of animals. A hemostat was used to carve out a subcutaneous tunnel toward the anterior end of animal. Osmotic pumps were placed inside the subcutaneous tunnel. […]
A solid-phase extraction (SPE) of analytes (UR, Compound I and 5-FU) from plasma was conducted before HPLC analysis. […] Samples were transferred into fresh HPLC vials and analyzed. […]

[2] = test system: C57BL/6 mice fed an MCD diet; assay: Methionine-choline deficient diet (MCD) model of NASH; type: in vivo; settings: end of MCD study; ip bid 28 days
Procedure: Mice fed an MCD diet is a standard model of diet induced NASH.^47,48 All animals were housed in ventilated standard housing cages throughout the experimental phase. Tap water was provided ad libitum to all animals. Male, 8-week old, C57BL/6 mice from Charles River were acclimated for 3 days maintained on a standard chow diet and group housed in hepa-filtered cages (5 animals per cage) on a normal 12 hours light cycle (at 8 am to 8 pm lights off). The temperature and humidity were 22±2° C. and 50±10%, respectively. Cages litters were changed once a week. ^47 Reid D T, Reyes J L, McDonald B A, Vo T, Reimer R A, Eksteen B. Kupffer Cells Undergo Fundamental Changes during the Development of Experimental NASH and Are Critical in Initiating Liver Damage and Inflammation. PLoS One. 2016, 25; 11:e0159524.^48 Ramadori P, Weiskirchen R, Trebicka J, Streetz K. Mouse models of metabolic liver injury. Lab Anim. 2015; 49(1 Suppl):47-58.
Following acclimation, the animals were randomized into homogenous treatment groups according to their body weight, and fed ad libitum a diet deficient in methionine and choline: 4.2 kcal/g; MP Biomedicals, Solon, OH). Food and water intake were measured 3 times per week (at the same time as body weight measurements). After the acclimation period, the 24 mice (n=6/treatment group) were weighed 3 times per week until sacrifice.
The 4 treatment group were: • Group 1: Vehicle+MCD • Group 2: MCD+200 mg/kg UR • Group 3: MCD+60 mg/kg Compound I • Group 4: MCD+60 mg/kg Compound 1 plus 200 mg/kg UR 30 minutes post Compound 1
All Compound 1 and UR doses (mg/kg in 10 mL/kg of vehicle) were ip, bid at least 8 hours apart, for 28 days. Vehicle=PBS. Vehicle, UR and Compound 1±UR will be dosed daily starting 2 days prior to placing the animals on a MCD diet. Mice were on the MCD diet for 26 days.
After 26 days on MCD, the animals were sacrificed ˜2 hours after the last dose and non-fasted glucose was measured along with a plasma lipid panel, TNF-α, ALT and AST. Total body weight was determined weekly. Total liver was weighed and the medial lobe excised, formalin fixed and stained with Oil Red O to evaluate lipid content. An intensity score for the fixed tissue slides measured by an independent histopathologist was also determined.

[3] = Elimination t1/2 of Compound 1 in mice; settings: mouse, in vivo
[4] = test system: C57BL/6 mice fed an MCD diet; assay: Methionine-choline deficient diet (MCD) model of NASH; type: in vivo; settings: H&E liver sections, end of MCD study; ip bid 28 days; FIG. 4
[5] = UR, reference 46; cited from earlier work

SMILES | effect on plasma UR level [1] | ALT [2] | AST [2] | cholesterol [2] | total triglycerides [2] | half-life [3] [h] | liver fibrosis scoring compared to vehicle treated controls [4] | elimination t1/2 [5]
Cc1cn2c(nc1=O)O[C@H]1[C@H](O)[C@@H](CO)O[C@H]12 [Compound 1] | elevate plasma UR in a linear fashion; also recorded: associated with higher levels of UR | no difference | no difference | no difference | no difference | 1 to 2 | statistically different | 
O=c1ccn([C@@H]2O[C@H](CO)[C@@H](O)[C@H]2O)c(=O)[nH]1 [UR, uridine] |  | no difference | no difference | no difference | no difference |  | statistically different | only a few minutes
